Source: PubChem BioAssay (NCI)
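Assay format: 96-well plates, 48-hour exposure. Definition used: TGI = concentration required for complete inhibition of growth.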

tested on: BT-549 breast; experiment: DTP human tumour cell line panel, 48 h

| SMILES | TGI [µM] |
| --- | --- |
| CN1CCOC1c1ccccc1O (configuration not stated) | > 100 |
| CCNC(=S)NNC(=O)C12CC3CC(CC(C3)C1)C2 | > 100 |
| CCN(CC)CCNc1nc(N)c(C#N)c(C#N)c1C#N | > 10 |
| CC1(C)OC[C@@H](O)[C@H](C#N)CO1 | > 100 |
| CCOc1ccc(/C=C2\N=C(c3ccc([N+](=O)[O-])cc3)OC2=O)cc1 | > 100 |
| CSc1cc(-c2cccs2)sc1-c1cc(SC)c(-c2sc(-c3sc(-c4cccs4)cc3SC)cc2SC)s1 | > 100 |
| CCC(C)(C)c1ccc(OCCCCNC(=O)c2ccc3ccccc3c2O)c(C(C)(C)CC)c1 | 82.5 |

tested on: OVCAR-4 ovarian; experiment: DTP human tumour cell line panel, 48 h

| SMILES | TGI [µM] |
| --- | --- |
| CN1CCOC1c1ccccc1O (configuration not stated) | > 100 |
| CCNC(=S)NNC(=O)C12CC3CC(CC(C3)C1)C2 | > 100 |
| CCN(CC)CCNc1nc(N)c(C#N)c(C#N)c1C#N | > 10 |
| CC1(C)OC[C@@H](O)[C@H](C#N)CO1 | > 100 |
| CCOc1ccc(/C=C2\N=C(c3ccc([N+](=O)[O-])cc3)OC2=O)cc1 | > 100 |
| CSc1cc(-c2cccs2)sc1-c1cc(SC)c(-c2sc(-c3sc(-c4cccs4)cc3SC)cc2SC)s1 | > 100 |
| CCC(C)(C)c1ccc(OCCCCNC(=O)c2ccc3ccccc3c2O)c(C(C)(C)CC)c1 | > 100 |

tested on: NCI/ADR-RES ovarian; experiment: DTP human tumour cell line panel, 48 h

| SMILES | TGI [µM] |
| --- | --- |
| CN1CCOC1c1ccccc1O (configuration not stated) | > 100 |
| CCNC(=S)NNC(=O)C12CC3CC(CC(C3)C1)C2 | > 100 |
| CCN(CC)CCNc1nc(N)c(C#N)c(C#N)c1C#N | > 10 |
| CSc1cc(-c2cccs2)sc1-c1cc(SC)c(-c2sc(-c3sc(-c4cccs4)cc3SC)cc2SC)s1 | > 100 |
| CCC(C)(C)c1ccc(OCCCCNC(=O)c2ccc3ccccc3c2O)c(C(C)(C)CC)c1 | > 100 |

tested on: HS 578T breast; experiment: DTP human tumour cell line panel, 48 h

| SMILES | TGI [µM] |
| --- | --- |
| CN1CCOC1c1ccccc1O (configuration not stated) | > 100 |
| CCNC(=S)NNC(=O)C12CC3CC(CC(C3)C1)C2 | > 100 |
| CCN(CC)CCNc1nc(N)c(C#N)c(C#N)c1C#N | > 10 |
| CC1(C)OC[C@@H](O)[C@H](C#N)CO1 | > 100 |
| CCOc1ccc(/C=C2\N=C(c3ccc([N+](=O)[O-])cc3)OC2=O)cc1 | > 100 |
| CSc1cc(-c2cccs2)sc1-c1cc(SC)c(-c2sc(-c3sc(-c4cccs4)cc3SC)cc2SC)s1 | > 100 |
| CCC(C)(C)c1ccc(OCCCCNC(=O)c2ccc3ccccc3c2O)c(C(C)(C)CC)c1 | > 100 |

tested on: OVCAR-8 ovarian; experiment: DTP human tumour cell line panel, 48 h

| SMILES | TGI [µM] |
| --- | --- |
| CN1CCOC1c1ccccc1O (configuration not stated) | > 100 |
| CCNC(=S)NNC(=O)C12CC3CC(CC(C3)C1)C2 | > 100 |
| CCN(CC)CCNc1nc(N)c(C#N)c(C#N)c1C#N | > 10 |
| CC1(C)OC[C@@H](O)[C@H](C#N)CO1 | > 100 |
| CCOc1ccc(/C=C2\N=C(c3ccc([N+](=O)[O-])cc3)OC2=O)cc1 | > 100 |
| CSc1cc(-c2cccs2)sc1-c1cc(SC)c(-c2sc(-c3sc(-c4cccs4)cc3SC)cc2SC)s1 | > 100 |
| CCC(C)(C)c1ccc(OCCCCNC(=O)c2ccc3ccccc3c2O)c(C(C)(C)CC)c1 | > 100 |

tested on: SK-MEL-5 melanoma; experiment: DTP human tumour cell line panel, 48 h

| SMILES | TGI [µM] |
| --- | --- |
| CN1CCOC1c1ccccc1O (configuration not stated) | > 100 |
| CCNC(=S)NNC(=O)C12CC3CC(CC(C3)C1)C2 | > 100 |
| CCN(CC)CCNc1nc(N)c(C#N)c(C#N)c1C#N | > 10 |
| CC1(C)OC[C@@H](O)[C@H](C#N)CO1 | > 100 |
| CCOc1ccc(/C=C2\N=C(c3ccc([N+](=O)[O-])cc3)OC2=O)cc1 | > 100 |
| CSc1cc(-c2cccs2)sc1-c1cc(SC)c(-c2sc(-c3sc(-c4cccs4)cc3SC)cc2SC)s1 | > 100 |
| CCC(C)(C)c1ccc(OCCCCNC(=O)c2ccc3ccccc3c2O)c(C(C)(C)CC)c1 | 71.4 |

tested on: RPMI-8226 leukemia; experiment: DTP human tumour cell line panel, 48 h

| SMILES | TGI [µM] |
| --- | --- |
| CN1CCOC1c1ccccc1O (configuration not stated) | > 100 |
| CCNC(=S)NNC(=O)C12CC3CC(CC(C3)C1)C2 | > 100 |
| CCN(CC)CCNc1nc(N)c(C#N)c(C#N)c1C#N | > 10 |
| CC1(C)OC[C@@H](O)[C@H](C#N)CO1 | > 100 |
| CCOc1ccc(/C=C2\N=C(c3ccc([N+](=O)[O-])cc3)OC2=O)cc1 | > 100 |
| CSc1cc(-c2cccs2)sc1-c1cc(SC)c(-c2sc(-c3sc(-c4cccs4)cc3SC)cc2SC)s1 | > 100 |

tested on: HCC-2998 colon; experiment: DTP human tumour cell line panel, 48 h

| SMILES | TGI [µM] |
| --- | --- |
| CCNC(=S)NNC(=O)C12CC3CC(CC(C3)C1)C2 | > 100 |
| CCN(CC)CCNc1nc(N)c(C#N)c(C#N)c1C#N | > 10 |
| CC1(C)OC[C@@H](O)[C@H](C#N)CO1 | > 100 |
| CCOc1ccc(/C=C2\N=C(c3ccc([N+](=O)[O-])cc3)OC2=O)cc1 | > 100 |
| CSc1cc(-c2cccs2)sc1-c1cc(SC)c(-c2sc(-c3sc(-c4cccs4)cc3SC)cc2SC)s1 | > 100 |
| CCC(C)(C)c1ccc(OCCCCNC(=O)c2ccc3ccccc3c2O)c(C(C)(C)CC)c1 | > 100 |

tested on: CCRF-CEM leukemia; experiment: DTP human tumour cell line panel, 48 h

| SMILES | TGI [µM] |
| --- | --- |
| CN1CCOC1c1ccccc1O (configuration not stated) | > 100 |
| CCNC(=S)NNC(=O)C12CC3CC(CC(C3)C1)C2 | > 100 |
| CCN(CC)CCNc1nc(N)c(C#N)c(C#N)c1C#N | > 10 |
| CC1(C)OC[C@@H](O)[C@H](C#N)CO1 | > 100 |
| CCOc1ccc(/C=C2\N=C(c3ccc([N+](=O)[O-])cc3)OC2=O)cc1 | > 100 |
| CSc1cc(-c2cccs2)sc1-c1cc(SC)c(-c2sc(-c3sc(-c4cccs4)cc3SC)cc2SC)s1 | > 100 |
| CCC(C)(C)c1ccc(OCCCCNC(=O)c2ccc3ccccc3c2O)c(C(C)(C)CC)c1 | > 100 |

tested on: SR leukemia; experiment: DTP human tumour cell line panel, 48 h

| SMILES | TGI [µM] |
| --- | --- |
| CN1CCOC1c1ccccc1O (configuration not stated) | > 100 |
| CC1(C)OC[C@@H](O)[C@H](C#N)CO1 | > 100 |
| CCOc1ccc(/C=C2\N=C(c3ccc([N+](=O)[O-])cc3)OC2=O)cc1 | > 100 |
| CCC(C)(C)c1ccc(OCCCCNC(=O)c2ccc3ccccc3c2O)c(C(C)(C)CC)c1 | > 100 |

tested on: RXF 393 renal; experiment: DTP human tumour cell line panel, 48 h

| SMILES | TGI [µM] |
| --- | --- |
| CN1CCOC1c1ccccc1O (configuration not stated) | > 100 |
| CCNC(=S)NNC(=O)C12CC3CC(CC(C3)C1)C2 | > 100 |
| CCN(CC)CCNc1nc(N)c(C#N)c(C#N)c1C#N | > 10 |
| CC1(C)OC[C@@H](O)[C@H](C#N)CO1 | > 100 |
| CCOc1ccc(/C=C2\N=C(c3ccc([N+](=O)[O-])cc3)OC2=O)cc1 | > 100 |
| CSc1cc(-c2cccs2)sc1-c1cc(SC)c(-c2sc(-c3sc(-c4cccs4)cc3SC)cc2SC)s1 | > 100 |

tested on: SF-295 CNS; experiment: DTP human tumour cell line panel, 48 h

| SMILES | TGI [µM] |
| --- | --- |
| CN1CCOC1c1ccccc1O (configuration not stated) | > 100 |
| CCNC(=S)NNC(=O)C12CC3CC(CC(C3)C1)C2 | > 100 |
| CCN(CC)CCNc1nc(N)c(C#N)c(C#N)c1C#N | > 10 |
| CC1(C)OC[C@@H](O)[C@H](C#N)CO1 | > 100 |
| CCOc1ccc(/C=C2\N=C(c3ccc([N+](=O)[O-])cc3)OC2=O)cc1 | > 100 |
| CSc1cc(-c2cccs2)sc1-c1cc(SC)c(-c2sc(-c3sc(-c4cccs4)cc3SC)cc2SC)s1 | > 100 |
| CCC(C)(C)c1ccc(OCCCCNC(=O)c2ccc3ccccc3c2O)c(C(C)(C)CC)c1 | > 100 |

tested on: MDA-MB-231 breast; experiment: DTP human tumour cell line panel, 48 h

| SMILES | TGI [µM] |
| --- | --- |
| CN1CCOC1c1ccccc1O (configuration not stated) | > 100 |
| CCNC(=S)NNC(=O)C12CC3CC(CC(C3)C1)C2 | > 100 |
| CCN(CC)CCNc1nc(N)c(C#N)c(C#N)c1C#N | > 10 |
| CC1(C)OC[C@@H](O)[C@H](C#N)CO1 | > 100 |
| CCOc1ccc(/C=C2\N=C(c3ccc([N+](=O)[O-])cc3)OC2=O)cc1 | > 100 |
| CSc1cc(-c2cccs2)sc1-c1cc(SC)c(-c2sc(-c3sc(-c4cccs4)cc3SC)cc2SC)s1 | > 100 |
| CCC(C)(C)c1ccc(OCCCCNC(=O)c2ccc3ccccc3c2O)c(C(C)(C)CC)c1 | > 100 |

tested on: EKVX NSCLC; experiment: DTP human tumour cell line panel, 48 h

| SMILES | TGI [µM] |
| --- | --- |
| CN1CCOC1c1ccccc1O (configuration not stated) | > 100 |
| CCN(CC)CCNc1nc(N)c(C#N)c(C#N)c1C#N | > 10 |
| CC1(C)OC[C@@H](O)[C@H](C#N)CO1 | > 100 |
| CCOc1ccc(/C=C2\N=C(c3ccc([N+](=O)[O-])cc3)OC2=O)cc1 | > 100 |
| CSc1cc(-c2cccs2)sc1-c1cc(SC)c(-c2sc(-c3sc(-c4cccs4)cc3SC)cc2SC)s1 | > 100 |
| CCC(C)(C)c1ccc(OCCCCNC(=O)c2ccc3ccccc3c2O)c(C(C)(C)CC)c1 | 87.9 |

tested on: ACHN renal; experiment: DTP human tumour cell line panel, 48 h

| SMILES | TGI [µM] |
| --- | --- |
| CN1CCOC1c1ccccc1O (configuration not stated) | > 100 |
| CCNC(=S)NNC(=O)C12CC3CC(CC(C3)C1)C2 | > 100 |
| CCN(CC)CCNc1nc(N)c(C#N)c(C#N)c1C#N | > 10 |
| CC1(C)OC[C@@H](O)[C@H](C#N)CO1 | > 100 |
| CCOc1ccc(/C=C2\N=C(c3ccc([N+](=O)[O-])cc3)OC2=O)cc1 | > 100 |
| CSc1cc(-c2cccs2)sc1-c1cc(SC)c(-c2sc(-c3sc(-c4cccs4)cc3SC)cc2SC)s1 | > 100 |
| CCC(C)(C)c1ccc(OCCCCNC(=O)c2ccc3ccccc3c2O)c(C(C)(C)CC)c1 | > 100 |

tested on: SNB-75 CNS; experiment: DTP human tumour cell line panel, 48 h

| SMILES | TGI [µM] |
| --- | --- |
| CN1CCOC1c1ccccc1O (configuration not stated) | > 100 |
